The source of these data is patent US12286427B2, “Heterocyclic compounds and uses thereof” (Kumquat Biosciences Inc., priority 2020, dated 2025).

As usually defined, the IC50 is the concentration that gives 50% inhibition.

One experiment deals with T1, wildtype Kras (Homo sapiens, UniProt P01116).
T1 construct: GST (N); made in house; host or cells: E. coli, e.g. BL21 (DE3)
Nature of the experiment: Nucleotide exchange assay (SOS1-mediated, BODIPY FL GDP fluorescence). Format: biochemical. The following applies: 250 nM or 500 nM GDP-loaded K-Ras, SOS1 catalytic domain, fluorescent labelled GDP 0.36 μM, 70 minutes; read-out: IC50 against wildtype Kras. The procedure:
(§1) For example, 250 nM or 500 nM GDP-loaded K-Ras proteins (e.g., wildtype or a mutant thereof including those mentioned in Example 6), each was incubated with different concentrations of compounds (for example ˜60 μM, ˜20 μM, ˜6.7 μM, ˜2.2 μM, ˜0.7 μM, ˜0.2 μM subject compound). A control reaction without subject compound was also included. SOS1 (catalytic domain) protein was added to the K-Ras protein solution. The nucleotide exchange reaction was initiated by adding fluorescent labelled GDP (Guanosine 5′-Diphosphate, BODIPY™ FL 2′-(or-3′)—O—(N-(2-Aminoethyl) Urethane) to a final concentration of 0.36 μM. Fluorescence was measured every 30 s for 70 minutes at 490 nm/515 nm (excitation/emission) in a M1000Pro plate reader (Tecan). Data is exported and analyzed to calculate an IC50 using GraphPad Prism (GraphPad Software). Samples were tested with or without a subject compound disclosed herein including compounds exemplified in Table 1 to assess each compound's ability to inhibit K-Ras signaling or its IC50 against a given Ras protein (e.g., a given mutant K-Ras) of interest.

In the next experiment the target is mutant Kras (Homo sapiens, UniProt P01116). The experiment is described as above. Format: biochemical. Conditions: 250 nM or 500 nM GDP-loaded K-Ras, SOS1 catalytic domain, fluorescent labelled GDP 0.36 μM, 70 minutes; read-out: IC50 against mutant Kras. The procedure:
as §1

T1 sequence (P01116 1-188 isoform P01116-2): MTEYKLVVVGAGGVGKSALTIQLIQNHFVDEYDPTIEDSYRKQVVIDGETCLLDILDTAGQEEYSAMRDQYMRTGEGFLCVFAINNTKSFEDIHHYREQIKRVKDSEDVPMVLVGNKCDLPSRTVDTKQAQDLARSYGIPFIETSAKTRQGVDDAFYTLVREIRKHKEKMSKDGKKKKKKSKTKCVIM
Chain of mutant Kras (P01116 whole entry G12D, form open, the tested form may be a part): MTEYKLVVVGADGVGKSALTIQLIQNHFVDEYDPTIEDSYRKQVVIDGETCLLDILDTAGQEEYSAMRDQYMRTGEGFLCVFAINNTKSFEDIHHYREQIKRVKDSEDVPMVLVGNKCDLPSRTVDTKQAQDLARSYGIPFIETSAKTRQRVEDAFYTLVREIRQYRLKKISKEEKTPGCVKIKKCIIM

`CN1CCC[C@H]1COc1nc(N2C[C@H](N)C[C@@H](F)C2)c2cc(Cl)c(-c3cccc4sc(N)nc34)c(F)c2n1` [Compound 7, 4-(4-((3R,5R)-3-amino-5-fluoropiperidin-1-yl)-6-chloro-8-fluoro-2-(((S)-1-methylpyrrolidin-2-yl)methoxy)quinazolin-7-yl)benzo[d]thiazol-2-amine]: the IC50 on wildtype Kras is over 5000 nM; on mutant Kras, 500 to 5000 nM.
`CN1CCC[C@H]1COc1nc(N2CCC[C@@H](N)C2)c2cc(Cl)c(-c3cccc4sc(N)nc34)c(F)c2n1` [Compound 8, 4-(4-((R)-3-aminopiperidin-1-yl)-6-chloro-8-fluoro-2-(((S)-1-methylpyrrolidin-2-yl)methoxy)quinazolin-7-yl)benzo[d]thiazol-2-amine]: the IC50 at wildtype Kras was 500 to 5000 nM; on mutant Kras, under 500 nM.
As for `Nc1nc2c(-c3c(Cl)cc4c(N5CCNCC5)nc(OCC56CCCN5CCC6)nc4c3F)cccc2s1` [Compound 12, 4-(6-chloro-8-fluoro-4-(piperazin-1-yl)-2-((tetrahydro-1H-pyrrolizin-7a(5H)-yl)methoxy)quinazolin-7-yl)benzo[d]thiazol-2-amine], the IC50 is 500 to 5000 nM at wildtype Kras and under 500 nM on mutant Kras.
`CN1CCC[C@H]1COc1nc(N2CC[C@H](N)C2)c2cc(Cl)c(-c3cccc4sc(N)nc34)c(F)c2n1` [Compound 11, 4-(4-((S)-3-aminopyrrolidin-1-yl)-6-chloro-8-fluoro-2-(((S)-1-methylpyrrolidin-2-yl)methoxy)quinazolin-7-yl)benzo[d]thiazol-2-amine]: the IC50 on wildtype Kras was 500 to 5000 nM; on mutant Kras, under 500 nM.
As for `CN1CCC[C@H]1COc1nc(N2C[C@@H](N)[C@@H](F)C2)c2cc(Cl)c(-c3cccc4sc(N)nc34)c(F)c2n1` [Compound 10, 4-(4-((3R,4S)-3-amino-4-fluoropyrrolidin-1-yl)-6-chloro-8-fluoro-2-(((S)-1-methylpyrrolidin-2-yl)methoxy)quinazolin-7-yl)benzo[d]thiazol-2-amine], the IC50 on wildtype Kras and on mutant Kras was 500 to 5000 nM each time.
In the case of `Nc1nc2c(-c3cnc4c(N5CC6CCC(C5)N6)nc(OC[C@@]56CCCN5C[C@H](F)C6)nc4c3)ccc(F)c2s1` [Compound 13, 4-(4-(3,8-diazabicyclo[3.2.1]octan-3-yl)-2-(((2R,7aS)-2-fluorotetrahydro-1H-pyrrolizin-7a(5H)-yl)methoxy)pyrido[3,2-d]pyrimidin-7-yl)-7-fluorobenzo[d]thiazol-2-amine], the IC50 at wildtype Kras is over 5000 nM; on mutant Kras, under 500 nM.
For `CN1CCC[C@H]1COc1nc(N2C[C@H](N)C[C@@H](O)C2)c2cc(Cl)c(-c3cccc4sc(N)nc34)c(F)c2n1` [Compound 4, (3R,5R)-5-amino-1-(7-(2-aminobenzo[d]thiazol-4-yl)-6-chloro-8-fluoro-2-(((S)-1-methylpyrrolidin-2-yl)methoxy)quinazolin-4-yl)piperidin-3-ol], in that order: over 5000 nM and under 500 nM.
As to `Cc1c(N)sc2c(F)ccc(-c3c(Cl)cc4c(N5C[C@H]6CC[C@@H](C5)N6)nc(OC[C@@]56CCCN5C[C@H](F)C6)nc4c3F)c12` [Compound 21, 4-(4-((1R,5S)-3,8-diazabicyclo[3.2.1]octan-3-yl)-6-chloro-8-fluoro-2-(((2R,7aS)-2-fluorotetrahydro-1H-pyrrolizin-7a(5H)-yl)methoxy)quinazolin-7-yl)-7-fluoro-3-methylbenzo[b]thiophen-2-amine], the IC50 at wildtype Kras and on mutant Kras was under 500 nM each time.
In the case of `CN1CCC[C@H]1COc1nc(N2C[C@H](N)C[C@H](F)C2)c2cc(Cl)c(-c3cccc4sc(N)nc34)c(F)c2n1` [Compound 6, 4-(4-((3R,5S)-3-amino-5-fluoropiperidin-1-yl)-6-chloro-8-fluoro-2-(((S)-1-methylpyrrolidin-2-yl)methoxy)quinazolin-7-yl)benzo[d]thiazol-2-amine], the figures for the IC50 at wildtype Kras and on mutant Kras were over 5000 nM and 500 to 5000 nM, respectively.
Turning to `Nc1nc2c(-c3cc4nc(OCC56CCCN5CCC6)nc(N5CC6CCC(C5)N6)c4nc3O)ccc(F)c2s1` [Compound 16, 7-(2-amino-7-fluorobenzo[d]thiazol-4-yl)-4-(3,8-diazabicyclo[3.2.1]octan-3-yl)-2-((tetrahydro-1H-pyrrolizin-7a(5H)-yl)methoxy)pyrido[3,2-d] pyrimidin-6-ol], the IC50 on wildtype Kras was over 5000 nM; at mutant Kras, under 500 nM.
Consider `CN1CCC[C@H]1COc1nc(N2C[C@H](N)C[C@H](O)C2)c2cc(Cl)c(-c3cccc4sc(N)nc34)c(F)c2n1` [Compound 3, (3S,5R)-5-amino-1-(7-(2-aminobenzo[d]thiazol-4-yl)-6-chloro-8-fluoro-2-(((S)-1-methylpyrrolidin-2-yl)methoxy)quinazolin-4-yl)piperidin-3-ol], for which the IC50 is 500 to 5000 nM at wildtype Kras and under 500 nM on mutant Kras.
For `COc1nc2c(N3CCNCC3)nc(OC[C@@]34CCCN3C[C@H](F)C4)nc2cc1-c1ccc(F)c2sc(N)nc12` [Compound 18, 7-fluoro-4-(2-(((2R,7aS)-2-fluorotetrahydro-1H-pyrrolizin-7a(5H)-yl)methoxy)-6-methoxy-4-(piperazin-1-yl)pyrido[3,2-d]pyrimidin-7-yl) benzo[d]thiazol-2-amine], in that order: over 5000 nM and 500 to 5000 nM.
`Cc1c(N)sc2cccc(-c3c(Cl)cc4c(N5C[C@H]6CC[C@@H](C5)N6)nc(OC[C@@]56CCCN5C[C@H](F)C6)nc4c3F)c12` [Compound 22, 4-(4-((1R,5S)-3,8-diazabicyclo[3.2.1]octan-3-yl)-6-chloro-8-fluoro-2-(((2R,7aS)-2-fluorotetrahydro-1H-pyrrolizin-7a(5H)-yl)methoxy)quinazolin-7-yl)-3-methylbenzo[b]thiophen-2-amine]: the IC50 on wildtype Kras and at mutant Kras was under 500 nM each time.
As to `COc1nc2c(N3C4CCC3CNC4)nc(OC[C@@]34CCCN3C[C@H](F)C4)nc2cc1-c1ccc(F)c2sc(N)nc12` [Compound 15, 4-(4-(3,8-diazabicyclo[3.2.1]octan-8-yl)-2-(((2R,7aS)-2-fluorotetrahydro-1H-pyrrolizin-7a(5H)-yl)methoxy)-6-methoxypyrido[3,2-d]pyrimidin-7-yl)-7-fluorobenzo[d]thiazol-2-amine], the IC50 at wildtype Kras is over 5000 nM; at mutant Kras, under 500 nM.
With `COc1nc2c(N3CC4CCC(C3)N4)nc(OC[C@@]34CCCN3C[C@H](F)C4)nc2cc1-c1ccc(F)c2sc(N)nc12` [Compound 14, 4-(4-(3,8-diazabicyclo[3.2.1]octan-3-yl)-2-(((2R,7aS)-2-fluorotetrahydro-1H-pyrrolizin-7a(5H)-yl)methoxy)-6-methoxypyrido[3,2-d]pyrimidin-7-yl)-7-fluorobenzo[d]thiazol-2-amine], the IC50 was 500 to 5000 nM at wildtype Kras and under 500 nM on mutant Kras.
In the case of `COc1nc2c(N3CC4CCC(C3)N4)nc(OCC34CCCN3CCC4)nc2cc1-c1ccc(F)c2sc(N)nc12` [Compound 17, 4-(4-(3,8-diazabicyclo[3.2.1]octan-3-yl)-6-methoxy-2-((tetrahydro-1H-pyrrolizin-7a(5H)-yl)methoxy)pyrido[3,2-d]pyrimidin-7-yl)-7-fluorobenzo[d]thiazol-2-amine], the values for the IC50 at wildtype Kras and at mutant Kras were 500 to 5000 nM and under 500 nM, respectively.
For `Nc1sc2c(F)ccc(-c3c(Cl)cc4c(N5C[C@H]6CC[C@@H](C5)N6)nc(OC[C@@]56CCCN5C[C@H](F)C6)nc4c3F)c2c1C1CC1` [Compound 20, 4-(4-((1R,5S)-3,8-diazabicyclo[3.2.1]octan-3-yl)-6-chloro-8-fluoro-2-(((2R,7aS)-2-fluorotetrahydro-1H-pyrrolizin-7a(5H)-yl)methoxy)quinazolin-7-yl)-3-cyclopropyl-7-fluorobenzo[b]thiophen-2-amine], in that order: 500 to 5000 nM and under 500 nM.
As to `N#Cc1c(N)sc2c(F)ccc(-c3c(Cl)cc4c(N5C[C@H]6CC[C@@H](C5)N6)nc(OC[C@@]56CCCN5C[C@H](F)C6)nc4c3F)c12` [Compound 19, 4-(4-((1R,5S)-3,8-diazabicyclo[3.2.1]octan-3-yl)-6-chloro-8-fluoro-2-(((2R,7aS)-2-fluorotetrahydro-1H-pyrrolizin-7a(5H)-yl)methoxy)quinazolin-7-yl)-2-amino-7-fluorobenzo[b]thiophene-3-carbonitrile], the IC50 on wildtype Kras and at mutant Kras was under 500 nM throughout.
For the molecule `CN1CCC[C@H]1COc1nc(N2CC(N)CC(O)C2)c2cc(Cl)c(-c3cccc4sc(N)nc34)c(F)c2n1` (stereo partly drawn) [Compound 5, 5-amino-1-(7-(2-aminobenzo[d]thiazol-4-yl)-6-chloro-8-fluoro-2-(((S)-1-methylpyrrolidin-2-yl)methoxy)quinazolin-4-yl)piperidin-3-ol], the IC50 was 500 to 5000 nM at wildtype Kras and under 500 nM on mutant Kras.
